This note sets out measurements from paper PMC6010047, “Design, synthesis and biological evaluation of novel hydroxy-phenyl-1H-benzimidazoles as radical scavengers and UV-protective agents” (Journal of Enzyme Inhibition and Medicinal Chemistry, 2017).

The term IC50 denotes the concentration at which inhibition is half-maximal. High values mean weaker potency, low ones greater potency.

Series [1] in a line: Ferric reducing antioxidant of potency (FRAP) assay. In kind it is biochemical. To be noted: Trolox equivalents; mean ± SE of three experiments. As to the method: The ferric reducing ability of each standard solution was measured according to a modified protocol described by Guihua et al.[26]. The reagent for analysis was freshly prepared by mixing the following solutions in the reported ratio 10/1/1 (v:v:v) (i) 0.1 M acetate buffer pH 3.6, (ii) TPTZ (2,4,6-Tri(2-pyridyl)-s-triazine) 10 mmol/L in 40 mmol/HCl, (iii) ferric chloride 20 mmol/L. To a 1.9 mL of reagent were added 0.1 mL of sample proper diluted or solvent when blank was performed. Readings at fixed wavelength of the absorption maximum (593 nm) were done after 30 min, using a UV-VIS spectrophotometer; it was evaluated the absorbance increase of sample solution against the absorbance of blank reaction as parameter to calculate the antioxidant activity. The antioxidant activity is given as Trolox activity since this standard was used to perform the calibration curves.

A short description of series [2]: UV spectra: λmax and molar extinction coefficient. Format: physicochemical. As to the method:
Sun protection factor (SPF) is related to the UV absorption of the substances, so before including the molecules in cosmetic formulations we evaluated the wavelength of maximum absorption (λmax) and the molar extinction coefficient (ɛ) of each molecule in aqueous solution at pH 7. The UV spectra were recorded between 270 and 420 nm (20 nm higher and lower then UVA and UVB range) to verify the spectrum profile of the molecules within UVA and UVB region. UV spectrum of PBSA is an UVB filter and presents a λmax of 302 nm; after this peak, the absorbance fades going to higher wavelength until almost zero around 325 nm, and then, it provides no absorption in the UVA region. Molecules spectra overlapped for category according to the substituent in position 5 of the benzimidazole ring are shown in Figures 1, 2 and 3; PBSA spectrum is presented in all figures for comparison.
From the spectra appears that the lambda maxima (Table 2) of the new molecules shifted toward higher wavelength and in general the range of absorption curve was wider than PBSA. Within a group of molecules, the batochromic shift was more marked for the molecules that have a hydroxyl moiety in position 2 of the phenyl ring (4, 5, 6, 9, 10, 11, 13 and […]); the effect of ortho substituted is known to produce this shift toward higher wavelength. Increasing the number of auxochrome groups on phenyl ring an increment in the absorption range occurred, compounds with three hydroxyl on the phenyl ring (6, 11, 15) had the broadest spectrum and their lambda maxima shifted at the highest wavelength compared to the other compounds. The absorption spectrum of molecules with the same number and position of hydroxyl seemed only slightly influenced by the substituent in position 5 of the benzimidazole ring. After having established the lambda maxima for every compound, solutions at different concentrations were prepared to calculate the molar extinction coefficient by means of linear regression and applying Lambert–Beer equation (Table 2).

In the next series the test system is NCTC-2544 cells. The experiment in a line: Phototoxicity / cellular photoprotection, UVA or UVB irradiation, MTT test. The note with it: Homo sapiens, NCTC-2544, light or radiation study, 48 h.
Series [3] in a line: Cytotoxicity, MTT test, 72 h. To be noted: human, NCTC-2544 keratinocytes (immortalized, nontumorigenic). (Tetrazolium dyes change colour on reduction, which living cells bring about.)
A short description of series [4]: 1,1-Diphenyl-2-picryl-hydrazyl radical (DPPH) assay. In kind it is biochemical. The note with it: Trolox equivalents; mean ± SE of three experiments. As to the method: To 1.5 mL DPPH methanolic solution (0.5 mM) was added 0.750 mL of sample solution proper diluted. Samples absorbance measurements were evaluated with a UV-VIS spectrophotometer (Thermo Spectronic Helios γ, Cambridge, UK) at fixed wavelength of 517 nm. Blank sample was prepared adding methanol to DPPH solution and Trolox was used as standard reference to achieve a calibration curve. The radical-scavenging activity is expressed as inhibition ratio of initial concentration of DPPH radical and is calculated according to the formula: Inhibition percentage (Ip) = [(AB-As)/AB]·100; where AB and As are, respectively, the absorbance values of blank reaction and of the tested sample[25].
In general terms: DPPH is a stable violet radical that fades when it is reduced.

Like-named read-outs stand apart in the source and are kept apart here.

Protocol for NCTC-2544 cells: An immortalized, nontumorigenic cell line of human keratinocytes (NCTC-2544) was grown in a DMEM medium (Sigma-Aldrich Milan, Italy), supplemented with 115 units/mL of penicillin G, 115 μg/mL streptomycin, and 10% fetal calf serum (Invitrogen, Milan, Italy). Individual wells of a 96-well tissue culture microtiter plates (Falcon, Becton–Dickinson) were inoculated with 100 μL of complete medium containing 5 × 10^3 NCTC-2544. The plates were incubated at 37 °C in a humidified (5% CO2) incubator for 18 h prior to the experiments.
Two HPW 125 Philips lamps, mainly emitting at 365 nm, were used for UVA irradiation experiments. The spectral irradiance of the source was 4.0 mWcm^−^2 as measured at the sample level by a Cole-Parmer Instrument Company radiometer (Niles, IL) equipped with a 365-CX sensor. One or two PL-S 9 W/12 Philips lamps (280–370 nm; peak at 315 nm) were used for UVB irradiation experiments. To restrict the incident radiation to the range 305–370 nm, a glass filter (Schott SWG-305) was used. Total energy was detected by the same equipped with a sensor (model CX-312).
After medium removal, 100 μL of the drug solution, dissolved in DMSO and diluted with Hank’s Balanced Salt Solution (HBSS pH =7.2), was added to each well, incubated at 37 °C for 30 min, and then irradiated (20 J/cm^2 for UVA and 0.5 and 1 J/cm^2 for UVB). After irradiation, the solution was replaced with the medium and the plates were further incubated for 48 h. Cell viability was assayed by the MTT [(3–(4,5-dimethylthiazol-2-yl)-2,5 diphenyl tetrazolium bromide)] test as previously described by Mosmann[27].
Molecules were verified for their photocytotoxicity in the same cell line; the cells were treated with 50 μM solutions of compound and after 30 min were irradiated with 20 J/cm^2 UVA or with UVB at two energy amounts: 0.5 J/cm^2 and 1 J/cm^2 UVB. […] After irradiation, the solution was replaced with growth medium and the cells were further incubated for 48 h, and then, cell viability was assessed by MTT assay. […] The phototoxicity of tested molecules was compared with the ratio of cell survival of irradiated keratinocytes without substance (IC = irradiated control).

For `Oc1ccc(-c2nc3ccccc3[nH]2)cc1` [Compound 7, 2-(4-Hydroxy-phenyl)-1H-benzimidazole], in series [1], the FRAP is listed as 21.94 ± 0.12 μmolTrolox/mmol. The compound also had a λ max in series [2] (aqueous solution at pH 7) of 306 nm. For the same compound, the “ɛ (molar extinction coefficient)” value in series [2] (aqueous solution at pH 7, at λ max, linear regression Lambert–Beer) was 24 000. Further, the viability at 20 µM was found to be 72.8 ± 2.9% with NCTC-2544 cells (read-out: % Cell survival UVA 20 J/cm^2), 74.2 ± 1.3% with NCTC-2544 cells (read-out: % Cell survival UVB 0.5 J/cm^2) and 44 ± 4.1% with NCTC-2544 cells (read-out: % Cell survival UVB 1 J/cm^2). Moreover, the IC50 at 72 h in series [3] amounted to 26.1 ± 2.4 µM. For the same compound, the DPPH in series [4] was found to be 1.67 ± 0.08 μmolTrolox/mmol.
